Data as given in article PMC9284491 (Nature Communications, 2022).
“Also recorded” adds a separate entry of the source. Where two headings read alike, the source gives them in different places.

What was measured:
[1] = system: ER+/HER2− advanced breast cancer; test: Antitumor activity per RECIST v1.1 (ORR, CBR, best overall response); assay type: in vivo, human; details: Part A, local review, n = 16
[2] = Amcenestrant plasma pharmacokinetics (LC-MS/MS, non-compartmental analysis); assay type: in vivo, human; details: for AUC(0-t) / Cmax / Tmax: human, plasma, oral
Method: To evaluate pharmacokinetics in Part A, venous blood samples were collected pre-dose and at regular intervals on cycle 1, day 1 (up to 48 h), on day 3 (up to 24 h), and on day 22 (up to 24 h). […] The validated range was 5 ng/mL to 5000 ng/mL.
In Part B, venous blood samples were collected pre-dose and at regular intervals on cycle 1, day 1 (up to 24 h), and on day 22 (up to 24 h).
NCA was performed using Phoenix® software.

[3] = Part A, repeated QD, Cycle 1 Day 22, fasting, 20 mg, N 3
[4] = Part A, repeated QD, Cycle 1 Day 22, fasting, 150 mg, N 2
[5] = Part A, repeated QD, Cycle 1 Day 22, fasting, 200 mg, N 3
[6] = Part A, repeated QD, Cycle 1 Day 22, fasting, 400 mg, N 3
[7] = Part A, repeated QD, Cycle 1 Day 22, fasting, 600 mg, N 3
[8] = Part B, 400 mg QD, Day 22, N 13

## O=C(O)c1ccc2c(c1)CCCC(c1ccc(Cl)cc1Cl)=C2c1ccc(O[C@H]2CCN(CCCF)C2)cc1 [amcenestrant, 6-(2,4-Dichlorophenyl)−5-[4-[(3S)−1-(3-fluoropropyl)pyrrolidin-3-yl]oxyphenyl]−8,9-dihydro-7H-benzo[7]annulene-2-carboxylic acid]
[1]
  objective response rate (ORR): 6.3%
  stable disease (SD), patients: 50%
[2]; 400 mg dose
  total variability of exposure: < 40%
[2]; 20–600 mg QD, single or multiple administrations
  dose proportionality of exposure: did not deviate significantly from dose proportionality; also recorded: exposure increased proportionally with doses up to 600 mg
[2]; Part A, doses ≥400 mg QD
  accumulation on day 22: No accumulation was observed
[2]; Part A, moderate fat breakfast
  delay of median tmax by food: ≈ 1 h
  food effect on exposure: modestly increased exposure
[2]; [3]
  CLss/F, Geometric mean (CV%): 14.8 (75.8) L/h
  CLss/F, Mean ± SD: 18.0 ± 13.7 L/h
  Ctrough, Mean ± SD: 12.6 ± 13.6 ng/mL
[2]; [4]
  CLss/F, Geometric mean (CV%): 9.99 (46.3) L/h
  CLss/F, Mean ± SD: 10.6 ± 4.89 L/h
  Ctrough, Geometric mean (CV%): 134 (15.7) ng/mL
  Ctrough, Mean ± SD: 135 ± 21.2 ng/mL
[2]; [5]
  CLss/F, Geometric mean (CV%): 14.9 (28.0) L/h
  CLss/F, Mean ± SD: 15.3 ± 4.30 L/h
  Ctrough, Geometric mean (CV%): 115 (73.0) ng/mL
  Ctrough, Mean ± SD: 140 ± 102 ng/mL
[2]; [6]
  CLss/F, Geometric mean (CV%): 13.5 (95.7) L/h
  CLss/F, Mean ± SD: 18.1 ± 17.4 L/h
  Ctrough, Geometric mean (CV%): 245 (79.3) ng/mL
  Ctrough, Mean ± SD: 397 ± 315 ng/mL
[2]; [7]
  CLss/F, Geometric mean (CV%): 14.4 (26.9) L/h
  CLss/F, Mean ± SD: 14.7 ± 3.96 L/h
  Cmax, Geometric mean (CV%): 5510 (17.3) ng/mL
  Ctrough, Geometric mean (CV%): 350 (88.2) ng/mL
  Ctrough, Mean ± SD: 449 ± 396 ng/mL
[2]; Part B, 400 mg QD, Day 1, N 16
  Cmax, Geometric mean (CV%): 5460 (46.8) ng/mL
  Tlag, Median: 0 h
[2]; [8]
  CLss/F, Geometric mean (CV%): 9.90 (41.0) L/h
  CLss/F, Mean ± SD: 10.6 ± 4.35 L/h
[2]; Part B, 400 mg QD, day 22
  apparent total clearance from plasma at steady state (CLss/F): 10.6 L/h
  coefficient of variation for AUC0-24h: 37.5%
  coefficient of variation for Cmax: 28.0%
[2]; 400 mg, Part B, 400 mg QD, Day 1, N 16, read-out: AUC0-24, Geometric mean (CV%)
  AUC(0-t): 44800 ng·h/mL
[2]; 400 mg, Part B, 400 mg QD, Day 1, N 16, read-out: AUC0-24, Mean ± SD
  AUC(0-t): 50900 ± 26000 ng·h/mL
[2]; 400 mg, Part B, 400 mg QD, Day 1, N 16, read-out: Cmax, Mean ± SD
  Cmax: 6020 ± 2810 ng/mL
[2]; 400 mg, Part B, 400 mg QD, Day 22, N 13, read-out: AUC0-24, Mean ± SD
  AUC(0-t): 43200 ± 16200 ng·h/mL
[2]; 400 mg, Part B, 400 mg QD, Day 22, N 13, read-out: Cmax, Geometric mean (CV%)
  Cmax: 4220 ng/mL
[2]; 400 mg, Part B, 400 mg QD, Day 22, N 13, read-out: Cmax, Mean ± SD
  Cmax: 4380 ± 1230 ng/mL
[2]; Part A, single dose day 1, starting from the 150-mg dose, read-out: median time to maximum concentration [tmax]
  Tmax: ~3 h
[2]; Part B, 400 mg QD, Day 1, N 16, read-out: tmax, Median
  Tmax: 3.98 h
